Experiments:
[1] = molecular target: T1, Collagenase from Clostridium histolyticum; test: absorbance […] nm, FALGPA hydrolysis; assay type: biochemical, Hathewaya histolytica; conditions: N-[3-(2-furyl)acryloyl]-Leu-Gly-Pro-Ala 1 mM, Tricine 50 mM pH 7.5, 37°C, 20 min pre-incubation
T1 construct: gene colG

[2] = molecular target: T2, bovine testes hyaluronidase type I-S (Bos taurus, UniProt F1MTV1); test: turbidity […] nm, hyaluronic acid with acidic albumin; assay type: biochemical; conditions: phosphate 300 mM pH 5.35, 37°C, 45 min
T2 construct: gene SPAM1; native enzyme from bovine testes, commercial
T2 sequence (F1MTV1 36-553): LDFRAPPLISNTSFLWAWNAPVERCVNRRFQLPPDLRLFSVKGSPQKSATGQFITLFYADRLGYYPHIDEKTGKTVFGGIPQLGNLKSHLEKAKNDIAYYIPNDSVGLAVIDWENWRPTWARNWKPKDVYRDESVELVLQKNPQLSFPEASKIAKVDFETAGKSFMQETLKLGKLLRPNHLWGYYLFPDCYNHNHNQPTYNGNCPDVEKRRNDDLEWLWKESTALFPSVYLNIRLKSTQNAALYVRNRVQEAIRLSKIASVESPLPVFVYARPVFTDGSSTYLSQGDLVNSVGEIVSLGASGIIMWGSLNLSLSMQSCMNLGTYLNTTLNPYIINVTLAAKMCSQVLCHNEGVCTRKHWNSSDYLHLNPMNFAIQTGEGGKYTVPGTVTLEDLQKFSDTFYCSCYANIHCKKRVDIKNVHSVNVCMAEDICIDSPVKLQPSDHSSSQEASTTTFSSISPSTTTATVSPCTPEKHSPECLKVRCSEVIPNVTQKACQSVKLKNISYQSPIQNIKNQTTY

mushroom tyrosinase = molecular target: T3, mushroom tyrosinase; test: absorbance […] nm, L-DOPA oxidation; assay type: biochemical; conditions: L-DOPA 1.5 mM stock (20 μL added), potassium phosphate 20 mM pH 6.8, room temperature, 15 min pre-incubation
T3 construct: gene PPO1; PPO3 (2Y9X) is only the docking model

[3] = molecular target: T4, porcine pancreas elastase (Sus scrofa, UniProt P00772); test: absorbance […] nm, p-nitroanilide release; assay type: biochemical
T4 construct: gene CELA1; native enzyme from porcine pancreas, commercial
T4 sequence (P00772 27-266): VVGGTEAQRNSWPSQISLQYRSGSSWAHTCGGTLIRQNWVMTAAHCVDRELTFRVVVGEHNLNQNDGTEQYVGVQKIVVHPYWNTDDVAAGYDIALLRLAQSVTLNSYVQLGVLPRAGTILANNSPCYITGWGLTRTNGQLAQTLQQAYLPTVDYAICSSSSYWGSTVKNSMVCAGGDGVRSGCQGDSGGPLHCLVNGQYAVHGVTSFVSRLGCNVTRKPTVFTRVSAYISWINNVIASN

Compound | IC50 [1] | IC50 [2] | IC50 (mushroom tyrosinase) | IC50 [3]
COc1c(O)cc2oc3cc(O)c(CC=C(C)C)c(O)c3c(=O)c2c1CC=C(C)C [Alpha-mangostin] | 23.8 µM | 39.5 µM | 173 µM | 50 µM
CC(C)=CCc1c(O)cc2oc3cc(O)c(O)c(CC=C(C)C)c3c(=O)c2c1O [Gamma-mangostin] | 140 µM | 60.2 µM | 127 µM | 156 µM
CC(C)=CCc1c(O)cc2oc3cc(O)c(O)c(CCC(C)(C)O)c3c(=O)c2c1O [Garcinone C] | 79.2 µM | 180 µM | 159 µM | 49.1 µM
COc1c(O)cc2oc3cc(O)c(CC=C(C)C)c(O)c3c(=O)c2c1CCC(C)(C)O [Garcinone D] | 159 µM | 204 µM | 252 µM | 49.8 µM

Reference: article PMC7652251, “Anti-aging Effects of Mangosteen Peel Extract and Its Phytochemical Compounds: Antioxidant Activity, Enzyme Inhibition and Molecular Docking Simulation” (Tropical Life Sciences Research, 2020)
